Source: paper PMC12194779, “Synergistic Insecticidal Activity of Plant Volatile Compounds: Impact on Neurotransmission and Detoxification Enzymes in Sitophilus zeamais” (Insects, 2025)
Converted amounts (≈) assume the structure as drawn. “And” between values parts separate entries of the source, which are not always exact repeats. Equal values may be shown once.

system: not given; test: not given; details: 1 ppm, after 14 days; cited from earlier work

Row | SMILES | mortality
1 | CC1(C)[C@H](C(=O)O[C@H](C#N)c2cccc(Oc3ccccc3)c2)[C@@H]1C=C(Br)Br [deltamethrin] | 45%

same assay, conditions: cited from earlier work

Row | SMILES | reported LD50
2 | CC1(C)C(C=C(Cl)Cl)C1C(=O)OCc1cccc(Oc2ccccc2)c1 (stereo not drawn) [permethrin] | 42.75 µg/adult

system: S. zeamais; test: not given; details: 7-day exposure; cited from earlier work

Row | SMILES | Fumigant LC50 reported in 7-day exposure assays
3 | CC1=CC[C@@](O)(C(C)C)CC1 [Compound C5, R-(−)-Terpinen-4-ol] | 4.79 µg/mL

same assay, conditions: previous reports; cited from earlier work

Row | SMILES | LC50 in vapor-phase assays without physical barriers
4 | Cc1ccc(C(C)C)cc1 [Compound C12, p-Cymene] | 23.3 mg/L (≈ 174 µM)
5 | CC1=CCC2CC1C2(C)C (stereo not drawn) [Compound C19, α-Pinene] | 120 µL/L
6 | CC1=CC=C(C(C)C)CC1 [Compound C13, α-Terpinene] | 56.2 mg/L (≈ 413 µM)
7 | CC1=CC[C@H](C(C)C)C=C1 [Compound C14, R-(−)-α-Phellandrene] | 72.7 mg/L (≈ 534 µM)

system: Sitophilus zeamais; test: whole plant or invertebrate; details: S. zeamais adults, 24 h after exposure
Experimental: (§1) The insects used in this study were Sitophilus zeamais Motschulsky (Coleoptera: Curculionidae), identified by the Instituto Colombiano Agropecuario (ICA) under report number R3823M0000425. […] The adult insects used in all the experiments were 6 to 10 days post-emergence.
The treated disks were affixed to the inner surface of the screw cap of 22 mL glass vials. […] All treatments were performed in two independent experiments, each with five replicates.
(§2) Mixtures predicted by the RSM were prepared based on mole fractions. […] Four replicates were performed for each treatment and control across two independent experimental runs.
Dose reduction indices (DRIs) were also calculated to estimate how much the dose of each compound in a synergistic combination could be reduced to achieve a 50% effect (Equation (4)). DRIs were interpreted as favorable when >1, neutral at 1, and unfavorable when <1. Values above the log DRI = 0 line indicate favorable dose reductions.(4) (IRD)i=CL50i(fax)i/(1−(fax)i)^1/mi/(D)i

Row | SMILES | Fumigant Toxicity LC50 (95% FL)
8 | CC1=CC[C@H](C(C)C)C=C1 [Compound C14, R-(−)-α-Phellandrene] | 88.87 (69.70–108.27) mg L^−1

same assay, conditions: Sitophilus zeamais, in Homo sapiens, 24 h, read-out: Fumigant Toxicity LC50 (95% FL)

Row | SMILES | LC50
9 | Cc1ccc(C(C)C)cc1 [Compound C12, p-Cymene] | 28.7 µg/mL and 214 µM
10 | CC1=CCC2CC1C2(C)C (stereo not drawn) [Compound C19, α-Pinene] | 110 µg/mL and 810 µM
11 | CC1=CC=C(C(C)C)CC1 [Compound C13, α-Terpinene] | 60.2 µg/mL and 442 µM
12 | CC1=CC[C@@](O)(C(C)C)CC1 [Compound C5, R-(−)-Terpinen-4-ol] | 4.03 µg/mL and 26.1 µM

same assay, conditions: Sitophilus zeamais, in Homo sapiens, 24 h, read-out: Fumigant Toxicity LC90 (95% FL)

Row | SMILES | EC90
13 | Cc1ccc(C(C)C)cc1 [Compound C12, p-Cymene] | 47 µg/mL and 350 µM
14 | CC1=CCC2CC1C2(C)C (stereo not drawn) [Compound C19, α-Pinene] | 179 µg/mL and 1.31 mM
15 | CC1=CC=C(C(C)C)CC1 [Compound C13, α-Terpinene] | 96.2 µg/mL and 706 µM
16 | CC1=CC[C@@](O)(C(C)C)CC1 [Compound C5, R-(−)-Terpinen-4-ol] | 6.13 µg/mL and 39.8 µM

same assay, conditions: Sitophilus zeamais, read-out: LC50 values, fumigant activity (Figure 3)

Row | SMILES | LC50
17 | CC1=CC[C@@](O)(C(C)C)CC1 [Compound C5, R-(−)-Terpinen-4-ol] | 4.03 µg/mL

same assay, conditions: read-out: Fumigant Toxicity LC50 (95% FL); S. zeamais adults, 24 h after exposure

Row | SMILES | LC50
18 | CC1=CC[C@H](C(C)C)C=C1 [Compound C14, R-(−)-α-Phellandrene] | 652 µM

system: Sitophilus zeamais; test: not given; format: in vivo; details: topical, 24 h after exposure
Experimental: as §1
Groups of 10 insects, previously placed in Petri dishes, were immobilized by exposure to low temperatures (0 °C). An initial dose of 50.0 µg per adult was applied topically to the dorsal thorax of each insect using aliquots of 0.20 µL from 0.25 mg/µL solutions in n-hexane. […] All treatments were performed in two independent experiments, each with four replicates. Insect mortality was assessed after 24 h, and mortality percentages were calculated using Abbott’s correction formula (Equation (1)).
as §2
Dose reduction indices (DRIs) were also calculated to estimate how much the dose of each compound in a synergistic combination could be reduced to achieve a 50% effect (Equation (4)). DRIs were interpreted as favorable when >1, neutral at 1, and unfavorable when <1.

Row | SMILES | Contact Toxicity LD50 (95% FL) | Contact Toxicity LD90 (95% FL)
19 | CC1=CC[C@@](O)(C(C)C)CC1 [Compound C5, R-(−)-Terpinen-4-ol] | 19.64 (18.42–21.45) µg/Adult | 24.82 (22.64–29.63) µg/Adult

system: CAT activity in S. oryzae; test: not given; set-up: method as in PMID 31027573; details: cited from earlier work

Row | SMILES | reduction of CAT activity
20 | CC(C)[C@@H]1CC[C@@H](C)CC1=O [menthone] | ~ 30%
